Data taken from PMC10381309 (Journal of Fungi, 2023).
Values after ≈ are worked out from the molar mass of the structure shown.

Columns and labels:
Type in all cases: cell-based
VERO cells (ATCC CCL-81) = assay: Cytotoxicity of hit drugs, MTT, 24 h; conditions: African green monkey
Procedure: VERO cells (ATCC® CCL-81, a kidney tissue derived from a normal adult African green monkey) were cultured in 199 medium with Earle’s salts supplemented with 100 U/mL of penicillin–100 µg/mL of streptomycin (Cultilab LTDA, São Paulo, Brazil) and 10% fetal bovine serum (FBS, Cultilab LTDA, Brazil) in an incubator at 37 °C with 5% CO2. Cells were subcultured in 25 or 75 cm^2 culture flasks once a week and the culture medium was also changed once a week. The cells used in the experiments were from passages 10 to 29 [42]. Cytotoxicity assays to assess cell viability were performed in 96-well plates with 5 × 10^4 cells/well that were exposed to hit drug solutions for 24 h at 37 °C in an incubator with 5% CO2. […]. A solution of 10% Tween 80 solution was used as the positive cellular death control. Wells with VERO cells receiving only the culture medium with or without 1% DMSO were also included as positive cellular growth controls.
The 3-(4,5-dimethylthiazol-2-yl)-2,5-diphenyltetrazolium bromide (MTT, Sigma-Aldrich®, USA) reagent dissolved in PBS, pH 7.4, was used to check cell viability. Results were read at 492 nm on a Thermo Scientific® Multiskan microplate spectrophotometer reader and expressed as percent cell viability in the culture medium after addition of a 10% Tween 80 solution.

[1] = tested on: Fonsecaea nubica (CFP 00912); assay: Minimum fungicidal concentration determination; conditions: F. nubica
Procedure: (§1) Minimum fungicidal concentration (MFC) was determined in triplicate by transferring a 5 μL aliquot from each well without fungal growth of the microdilution plates used for MIC determination, as described above, onto 2% glucose Sabouraud agar (Sigma Chemical Corporation). The MFC was determined as the lowest drug concentration without fungal growth on Sabouraud agar after five days of incubation at 35 °C. When the MFC/MIC ratio of a hit drug was 1 or 2, the substance was considered fungicidal against the pathogen. If this ratio was greater than 2, the hit drug was considered to be fungistatic.

[2] = tested on: Exophiala heteromorpha (ATCC 28180); assay: Minimum fungicidal concentration determination; conditions: E. heteromorpha
Procedure: as §1

[3] = tested on: Phialophora verrucosa (CFP 00937); assay: Minimum fungicidal concentration determination; conditions: P. verrucosa
Procedure: as §1

[4] = tested on: Rhinocladiela similis (CFP 00790); assay: Minimum fungicidal concentration determination; conditions: R. similis
Procedure: as §1

[5] = tested on: Exophiala dermatitidis (ATCC 28869); assay: Minimum fungicidal concentration determination; conditions: E. dermatitidis
Procedure: as §1

[6] = tested on: Fonsecaea monophora (CFP 00911); assay: Minimum fungicidal concentration determination; conditions: F. monophora
Procedure: as §1

[7] = tested on: Fonsecaea pedrosoi (CFP 00791); assay: Minimum fungicidal concentration determination; conditions: F. pedrosoi
Procedure: as §1

[8] = tested on: Fonsecaea pedrosoi (CFP 00791); assay: NIH Clinical Collection screening for antifungal activity (growth inhibition, OD 530 nm); conditions: 10 µM; CFP00791 Fonsecaea pedrosoi isolate; 72–96 h; read-out: % Growth Inhibition
Procedure: These substances are part of the NIH Roadmap Molecular Libraries Screening Centers Network screening library, a collection of chemically diverse substances in Phase I-III clinical trials. Each substance was initially diluted to 1 mM in DMSO and stored at −20 °C until use. […] The final DMSO concentration corresponded to 0.5% v/v. The inoculum was prepared according to the protocol for filamentous fungi proposed by the European Committee on Antimicrobial Susceptibility Testing—EUCAST, with minor modifications. […] After growth, conidia were suspended in 3 mL of sterile distilled water with 0.1% Tween 20, vortexed, and the concentration adjusted to the 0.5 McFarland scale. The suspension was then diluted 1:10 in order to obtain a final working inoculum at 2–5 × 10^5 CFU/mL. Next, 100 µL of the inoculum was added to each well and the plates incubated at 35 °C for 72–96 h. Negative and positive controls consisted of culture medium alone and drug-free culture medium with the fungal inoculum previously described, respectively. Plates were read using a microplate reader (Epoch, Biotek, Wenusky, VT, USA) with a 530 nm filter to obtain the optical density. All plates were also visually read to confirm the equipment data. A calculation was performed to obtain the percentage of inhibition of fungal growth, according to the formula: (1 − (OD1/OD2)) × 100, where OD1 = optical density of the fungus in the presence of the drug; and OD2 = optical density of the growth control drug-free well.

[9] = tested on: Fonsecaea nubica (CFP 00912); assay: MIC determination (EUCAST, minor modifications); conditions: F. nubica
Procedure: (§2) Minimum inhibitory concentrations (MICs) were determined using the method proposed by the European Committee on Antimicrobial Susceptibility Testing (EUCAST), with minor modifications. Hit drugs were serially diluted (80 μM to 0.15625 μM) in RPMI 1640 (twice concentrated, pH 7; supplemented with 2% glucose) buffered with MOPS in 96-well plates. The inoculums of all strains were prepared following the EUCAST protocol. Plates were incubated at 35 °C for 72–96 h. The MIC of the NCC substances was determined as the lowest concentration capable of inhibiting 100% of fungal growth when compared to the growth control well. MIC values were determined in duplicate.

[10] = tested on: Exophiala heteromorpha (ATCC 28180); assay: MIC determination (EUCAST, minor modifications); conditions: E. heteromorpha
Procedure: as §2

[11] = tested on: Phialophora verrucosa (CFP 00937); assay: MIC determination (EUCAST, minor modifications); conditions: P. verrucosa
Procedure: as §2

[12] = tested on: Rhinocladiela similis (CFP 00790); assay: MIC determination (EUCAST, minor modifications); conditions: R. similis
Procedure: as §2

[13] = tested on: Exophiala dermatitidis (ATCC 28869); assay: MIC determination (EUCAST, minor modifications); conditions: E. dermatitidis
Procedure: as §2

[14] = tested on: Fonsecaea monophora (CFP 00911); assay: MIC determination (EUCAST, minor modifications); conditions: F. monophora
Procedure: as §2

[15] = tested on: Cladophialophora carrionii (CFP 00910); assay: MIC determination (EUCAST, minor modifications); conditions: C. carrionii
Procedure: as §2

[16] = tested on: Fonsecaea pedrosoi (CFP 00791); assay: MIC determination (EUCAST, minor modifications); conditions: F. pedrosoi
Procedure: as §2

[17] = tested on: Cladophialophora carrionii (CFP 00910); assay: Minimum fungicidal concentration determination; conditions: C. carrionii
Procedure: The MFC was determined as the lowest drug concentration without fungal growth on Sabouraud agar after five days of incubation at 35 °C.

MIC ([9]; Fonsecaea nubica, 100% growth inhibition, read-out: MIC): 5 µM (≈ 1.48 µg/mL)
MIC ([10]; Exophiala heteromorpha, ATCC28180, 100% growth inhibition, read-out: MIC): 5 µM (≈ 1.48 µg/mL)
MIC ([11]; Phialophora verrucosa, 100% growth inhibition, read-out: MIC): 5 µM (≈ 1.48 µg/mL)
MIC ([12]; 100% growth inhibition, read-out: MIC): 5 µM (≈ 1.48 µg/mL)
MIC ([13]; Exophiala dermatitidis, ATCC28869, 100% growth inhibition, read-out: MIC): 20 µM (≈ 5.91 µg/mL)
MIC ([14]; Fonsecaea monophora, 100% growth inhibition, read-out: MIC): 2.5 µM (≈ 0.738 µg/mL)
MIC ([15]; Cladophialophora carrionii, 100% growth inhibition, read-out: MIC): 2.5 µM (≈ 0.738 µg/mL)
MIC ([16]; Fonsecaea pedrosoi, 100% growth inhibition, read-out: MIC): 5 µM (≈ 1.48 µg/mL)
Compound: COC(=O)Nc1nc2ccc(C(=O)c3ccccc3)cc2[nH]1 [Mebendazole]
CC50 (translated from >100 μg/mL) (VERO cells (ATCC CCL-81)): ~338.98 µM
MFC:MIC Ratio [1]: >16
MFC ([1]; Fonsecaea nubica, read-out: MFC): > 80 µM
MFC:MIC Ratio [2]: >16
MFC ([2]; Exophiala heteromorpha, ATCC28180, read-out: MFC): > 80 µM
MFC:MIC Ratio [3]: 2
fungicidal or fungistatic (MFC/MIC ratio) [3]: fungicidal (When the MFC/MIC ratio of a hit drug was 1 or 2, the substance was considered fungicidal)
MFC ([3]; Phialophora verrucosa, read-out: MFC): 10 µM (≈ 2.95 µg/mL)
MFC:MIC Ratio [4]: >16
MFC ([4]; read-out: MFC): > 80 µM
MFC:MIC Ratio [5]: >4
MFC ([5]; Exophiala dermatitidis, ATCC28869, read-out: MFC): > 80 µM
MFC:MIC Ratio [6]: 32
MFC ([6]; Fonsecaea monophora, read-out: MFC): 80 µM (≈ 23.6 µg/mL)
MFC:MIC Ratio [7]: 1
fungicidal or fungistatic (MFC/MIC ratio) [7]: fungicidal (When the MFC/MIC ratio of a hit drug was 1 or 2, the substance was considered fungicidal)
MFC ([7]; Fonsecaea pedrosoi, read-out: MFC): 5 µM (≈ 1.48 µg/mL)
inhibition at 10 µM [8]: 83%
Selectivity Index (SI) ([9]; CC50 Vero 24 h / MIC): 67.79
Selectivity Index (SI) ([10]; CC50 Vero 24 h / MIC): 67.79
Selectivity Index (SI) ([11]; CC50 Vero 24 h / MIC): 67.79
Selectivity Index (SI) ([12]; CC50 Vero 24 h / MIC): 67.79
Selectivity Index (SI) ([13]; CC50 Vero 24 h / MIC): 16.94
Selectivity Index (SI) ([14]; CC50 Vero 24 h / MIC): 135.59
Selectivity Index (SI) ([15]; CC50 Vero 24 h / MIC): 135.59
Selectivity Index (SI) ([16]; CC50 Vero 24 h / MIC): 67.79
MFC:MIC Ratio [17]: 1
fungicidal or fungistatic (MFC/MIC ratio) [17]: fungicidal (When the MFC/MIC ratio of a hit drug was 1 or 2, the substance was considered fungicidal)
MFC ([17]; Cladophialophora carrionii, read-out: MFC): 2.5 µM (≈ 0.738 µg/mL)
